Laboratory results: paper PMC4931907 (eLife, 2016)

How the values were obtained:
[1] = biological target: T1, p300 (Homo sapiens, UniProt Q09472); experiment: In vitro HAT assay with recombinant p300, histones and 14C acetyl-CoA; assay type: biochemical; conditions: for IC50: in vitro HAT assay, recombinant p300 and histones, read-out: IC50, p300 acetyltransferase activity
T1 construct: in vitro acetylation assays with purified histones and a recombinant p300 catalytic domain; purchased Enzo Life Sciences
T1 sequence (Q09472 1287-1663 limits assumed): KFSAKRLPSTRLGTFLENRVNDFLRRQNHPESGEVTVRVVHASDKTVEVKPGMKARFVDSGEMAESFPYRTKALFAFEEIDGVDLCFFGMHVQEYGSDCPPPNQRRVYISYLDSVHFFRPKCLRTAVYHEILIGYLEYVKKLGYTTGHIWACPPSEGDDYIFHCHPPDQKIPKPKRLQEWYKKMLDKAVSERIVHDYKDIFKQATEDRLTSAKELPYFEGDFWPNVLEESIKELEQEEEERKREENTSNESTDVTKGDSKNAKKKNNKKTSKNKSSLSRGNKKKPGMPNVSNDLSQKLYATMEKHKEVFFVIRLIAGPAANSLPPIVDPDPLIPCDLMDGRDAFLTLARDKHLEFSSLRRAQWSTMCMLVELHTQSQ
Description: To determine whether salicylate inhibits p300 and other acetyltransferases, we used in vitro acetylation assays with purified histones and a recombinant p300 catalytic domain.
(§1) Figure 1. Salicylate inhibits CBP/p300 in vitro. (A) Recombinant p300, CBP, GCN5, or PCAF and histones were incubated with ^14C-labeled acetyl-CoA with or without sodium salicylate, separated by SDS-PAGE, analyzed by autoradiography, and quantified with Image J software. Acetylation levels are relative to those in untreated controls. (B) Thermal stability assay for sodium salicylate binding to the p300 HAT domain. Tm, melting temperature. (C) and (D) Lineweaver-Burk plots showing kinetic analysis of p300 acetyltransferase inhibition by sodium salicylate. Histone acetylation was measured with several concentrations of acetyl-CoA (C) or histone (D) in the presence or absence of sodium salicylate. DOI: http://dx.doi.org/10.7554/eLife.11156.003 Figure 1—figure supplement 1. […] (A) Dose-response data for inhibition of p300 by salicylate and salicyl-CoA. Acetylation of an H4(3–14) peptide was monitored using direct microfluidic mobility shift analysis as previously described ([Montgomery et al., 2014]; [Fanslau et al., 2010]). Error is given as the 95% confidence interval. […] Error is given as the 95% confidence interval. DOI: http://dx.doi.org/10.7554/eLife.11156.004 [drawing 1] TEXT PRINTED IN THE PICTURE: (A) Salicylate: p300 IC50 (mM): 6.12; Confidence Interval [CI95] (mM): 5.2–7.2 | (A) Salicyl-CoA: p300 IC50 (mM): […]; Confidence Interval [CI95] […] (mM): 0.78–1.4 | (B) Diflunisal-CoA: p300 IC50 (mM): 0.02; Confidence Interval [CI95] (mM): 0.02–0.03
Recombinant HAT ([…]), either p300, CBP, PCAF, or GCN5 (Enzo Life Sciences), and 10 µg of histones (Sigma) were incubated with sodium salicylate (Sigma) in reaction buffer (50 mM HEPES, pH 8.0, 10% glycerol, 1 mM) at 30°C for 30 min and then with 0.1 mCi of ^14C acetyl-CoA at 30°C for 60 min. Reactions were stopped by adding 6x sample buffer and analyzed by SDS-PAGE. The gels were dried, and signals were obtained by autoradiography and quantified with Image J software. To quantify acetylated histone levels, we generated a standard curve from signals of lanes loaded with […] of ^14C labeled histones.

[2] = biological target: T1, p300; experiment: p300 inhibition by direct microfluidic mobility shift analysis, H4(3–14) peptide; assay type: biochemical; conditions: microfluidic mobility shift, H4(3–14) peptide, 5 μM acetyl-CoA
Description: as §1
Salicyl-CoA and diflunisal-CoA were synthesized from their parent carboxylic acids and HPLC purified according to previously reported methods ([Padmakumar et al., 1997]). The purity of each acyl-CoA was confirmed by analytical HPLC prior immediately prior to utilization ([Montgomery et al., 2014]; [Fanslau et al., 2010]). P300 inhibition assays were performed using direct microfluidic mobility shift analysis as previously described. Briefly, p300 reaction mixture (50 mM HEPES, pH 7.5, 50 mM NaCl, 2 mM EDTA, 2 mM DTT, 0.05% Triton-X-100, 50 nM p300, 2 μM FITC-histone H4 peptide) was plated in 384-well plates and allowed to equilibrate at room temperature for 10 min. Reactions were initiated by addition of acetyl-CoA (final concentration = 5 μM), bringing the final assay volume to 30 μL. Assays were quenched after 10 min (<15% product accumulation) by addition of 5 μL of 0.5 M neutral hydroxylamine and transferred to a Perkin-Elmer Lab-Chip EZ-Reader instrument for analysis. Separation conditions were: downstream voltage of −500 V, upstream voltage of −2500 V, and a pressure of −1.5 psi. Percent conversion was calculated by ratiometric measurement of substrate/product peak heights. Percent activity represents the percent conversion of KAT reactions treated with inhibitors relative to untreated control KAT reactions, and corrected for nonenzymatic acetylation. Dose-response analysis of p300 inhibition was performed in triplicate and analyzed by nonlinear least-squares regression fit to Y = 100/(1 + 10∧(Log IC50 – X)*H), where H = Hill slope (variable). IC50 values represent the concentration that inhibits 50% of KAT activity. Calculations were performed using Prism 6 (GraphPad) software.

SMILES | IC50 [1] | IC50 [2] | Mode of p300 inhibition against acetyl-CoA ([1]; Lineweaver-Burk, various concentrations of acetyl-CoA) | Mode of p300 inhibition against histones ([1]; Lineweaver-Burk, various concentrations of histone)
O=C(O)c1cc(-c2ccc(F)cc2F)ccc1O [diflunisal] | 0.996 mM | 1.05 mM | – | –
O=C(O)c1ccccc1O [salicylate, salicylic acid] | 10.2 mM | 6.12 mM | direct competitive p300 inhibition against acetyl-CoA | noncompetitive inhibition against histones
